Laboratory results as given in publication PMC5691054, “An unexpected protein interaction promotes drug resistance in leukemia” (Nature Communications, 2017).
Entries after “also recorded” stand apart in the source; their conditions may differ. Where no end group is shown, it is not given here.

Assays:
HEK293 cells [1] = experiment: 6MP cytotoxicity / drug resistance in transfected HEK293 cells; assay type: cell-based, Human; conditions: for IC50: Homo sapiens, HEK293, 96 h, HEK293 expressing ABCC4, CellTiter Glo
Experimental: (§1) HEK293 cells transfected with ABCC4 or ABCC4ΔC in the presence or absence of MPP1, MO7e, and Meg01 cells were treated with 10 concentrations of 6MP, ranging from 1 to 1000 µM, for 96 h. Cell viability analysis was determined using CellTiter Glo (Promega). Where applicable, cell penetrating peptides conjugated to the PDZ-binding motif of ABCC4 (labeled either ABCC4-PDZ or ABCC4ΔC) were added to the cells at 20 μM. Media was changed daily and new ABCC4-PDZ/ABCC4ΔC peptide and 6MP was added. IC50 values were calculated using GraphPad Prism.

MO7e cells [2] = experiment: 6MP cytotoxicity in MO7e cells and CRISPR knock-outs; assay type: cell-based, Human; conditions: for IC50: Homo sapiens, Mo7e, 96 h, CellTiter Glo, triplicate; for decrease of 6MP resistance vs. parental cells: MO7e
Experimental: as §1
CRISPR-Cas9 plasmids containing gRNAs against ABCC4 ([…]) and MPP1 ([…]) were purchased from Sigma Aldrich. MO7e cells were transiently transfected with constructs containing the gRNA, Cas9 Nickase, and a flurophore. Forty-eight hours after transfection, cells were sorted for fluorescent positive cells and single cells were sorted into individual wells of a 96-well plate. Single-sorted cells were allowed to expand and deletion of the gene of interest was verified by immunoblotting.
The Meg01, MO7e, and ABCC4 KO MO7e cell lines were plated at 1500 cells per well in a 96-well plate. Cells were treated with 10 concentrations of Antimycin A (Santa Cruz) ranging from 0.01 to 1000 μM. Cell viability was determined using CellTiter Glo (Promega). Meg01, MO7e, and ABCC4 KO MO7e cells in the presence or absence of 10 nM Antimycin A were treated with 10 concentrations of 6MP, ranging from 1 to 1000 µM, for 96 h. Cell viability analysis was determined using CellTiter Glo. IC50 values were calculated using GraphPad Prism.

MO7e cells [3] = experiment: Etoposide cytotoxicity in MO7e cells and CRISPR knock-outs; assay type: cell-based, Human; conditions: for IC50: Homo sapiens, Mo7e, triplicate
HEK293 cells [4] = experiment: Etoposide cytotoxicity in transfected HEK293 cells; assay type: cell-based, Human; conditions: for IC50: Homo sapiens, triplicate
[5] = tested on: primary AML cells from adult patients; experiment: Annexin V/PI apoptosis in primary AML patient samples; assay type: cell-based, Human
Experimental: Primary AML cells from adult patients were treated with either vehicle, 50 or 100 µM cytarabine, 10 nM Antimycin A, or the combination of 50 or 100 µM cytarabine + 10 nM Antimycin A for 4 h. Post treatment, the cells were washed with fresh media (2×) and resuspended in the absence or presence of 10 nM Antimycin A and cultured for an additional 44 h (for a total treatment time of 48 h). The cells were then stained with Annexin V-fluorescein isothiocyanate (FITC)/propidium iodide (PI) apoptosis Kit (Beckman Coulter; Brea, CA, USA). The stage of apoptotic cells (Annexin V-positive, but early or late apoptosis) is identified by the proportion of AnnexinV+/PI− (early apoptosis) and Annexin V+/PI+ (late apoptosis) cells. This experiment was performed once in triplicates (presented as average ± SEM) due to the limited sample availability. Patient samples were selected based on the availability of an adequate number of cells to perform the assay.

[6] = tested on: murine hematopoietic progenitor cells (HPC); experiment: Hematopoietic progenitor cell serial replating in methylcellulose; conditions: HPC transduced with MPP1; cell penetrating peptide, fresh at each replating; n = 3
Experimental: In these experiments, littermates were used as controls. Bone marrow from 8- to 12-week-old female virgin C57/BL6 mice were harvested. Progenitors were enriched by incubating with lineage-PE antibodies (CD4, CD8, Mac1, Gr1, NK1.1, B220, and Ter119) and separated using AutoMACS Pro (Miltenyi). Hematopoetic progenitor cells were cultured in the presence of recombinant murine SCF (rmSCF), IL3 (rmIL3), and IL6 (rmIL6) (Peprotech; all 50 ng/ml) for 48 h before transduction on RetroNectin (Takara) coated plates. Retroviral supernatant containing media was produced by transient transfection of HEK293T cells with MSCV based retroviral plasmids encoding either MYCN-ires-YFP or MPP1-ires-CFP as previously described[35]. Forty-eight hours post transduction, cells were harvested, sorted for either YFP or CFP expression, and plated on methylcellulose containing IL3, IL6, SCF, and EPO (Stem Cell Technologies). Colonies were counted after 7 days growth at 37 °C, harvested, and replated.

[7] = tested on: ABCC4 plasma membrane localization in HEK293 cells expressing MPP1 and GFP-ABCC4; experiment: ABCC4 plasma membrane localization (confocal microscopy); assay type: cell-based, Human
Experimental: Peptides containing or lacking the ABCC4-PDZ motif were fused with the cell penetrating HIV-TAT peptide. These peptides were tested for their effect on ABCC4 plasma membrane localization. HEK293 cells were transfected with MPP1 and GFP-ABCC4 and the ER protein, calreticulin. The plasma membrane was counter-stained with wheat-germ-agglutinin (WGA) labeled with Alexa647 after treatment with either ABCC4-PDZ or ABCC4ΔC peptide.
HEK293 cells were seeded on chambered coverglass slides (LAB-TEK) 48 h before transfection with plasmid DNA (250 ng) encoding pAc-GFP-ABCC4 or ABCC4ΔC and pCal plasmid encoding the ER resident protein calreticulin conjugated to RFP (Origene). Transfection was performed using Lipofectamine 2000 as per the manufacturer’s instructions. Immediately prior to visualizing cells, cells were counterstained with the plasma membrane marker wheat-germ agglutinin (WGA) conjugated to Alexa-647 (Invitrogen). All confocal microscopy images were acquired on a 3i Marianas system configured with an Yokagowa CSU-X spinning disk confocal microscope utilizing a ×63 Zeiss objective, using the 488 (GFP), 561 (RFP), and 660 (far red) laser lines.

MO7e cells [8] = experiment: 6MP cytotoxicity in MO7e cells and CRISPR knock-outs; assay type: cell-based, Human; conditions: cell permeable peptide (10 μM), in words
[9] = target: T1, MPP1 and ABCC4 protein interaction (Homo sapiens, UniProt Q00013); experiment: Competition of ABCC4 C-terminal peptides with MPP1–ABCC4 complex (GST-ABCC4-C100 pull-down, immunoblot); assay type: biochemical; conditions: in words; in vitro competition experiment
T1 construct: For full-length expression of MPP1, the pTriX vector containing an N-terminal His tag was used to create the His-S-MPP1 fusion protein; made in house; host or cells: E. coli
T1 sequence (Q00013 1-466): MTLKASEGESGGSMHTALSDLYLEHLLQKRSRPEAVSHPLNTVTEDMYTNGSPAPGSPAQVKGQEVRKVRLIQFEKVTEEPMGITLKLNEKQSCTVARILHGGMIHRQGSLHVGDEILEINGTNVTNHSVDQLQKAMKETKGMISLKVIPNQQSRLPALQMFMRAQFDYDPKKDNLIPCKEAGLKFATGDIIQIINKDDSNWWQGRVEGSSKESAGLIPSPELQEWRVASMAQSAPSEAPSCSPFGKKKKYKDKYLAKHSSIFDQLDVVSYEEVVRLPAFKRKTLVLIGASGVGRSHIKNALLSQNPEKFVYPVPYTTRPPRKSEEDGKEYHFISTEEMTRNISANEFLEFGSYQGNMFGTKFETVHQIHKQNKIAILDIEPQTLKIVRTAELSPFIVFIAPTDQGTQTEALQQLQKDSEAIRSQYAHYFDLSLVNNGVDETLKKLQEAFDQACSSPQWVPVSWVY
Experimental: C-terminal peptides of ABCC4 containing the carboxyl-terminal 15 amino acids ([…]-COOH, ABCC4-PDZ) or carboxyl-terminal 11 amino acids lacking the PDZ-binding motif ([…]-COOH, ABCC4ΔC) conjugated to the cell penetrating peptide TAT ([…]) were chemically synthesized by the Hartwell Center for Bionformatics and Biotechnology at SJCRH. ABCC4 peptides (1–4 μM) were mixed with purified GST-ABCC4-C100 (50 nM) (Supplementary Fig. 10 ) before addition of His-S-MPP1 (3.6 nM) and allowed to mix for 2 h at 24 °C. The GST-ABCC4-C100 was immobilized on glutathione beads, and washed 3 times. Protein complexes were eluted from the beads, separated by SDS-PAGE, and immunoblotted with rabbit anti-MPP1.

ABCC4 (MO7e lysates) = experiment: Immunoprecipitation of ABCC4 from MO7e lysates by purified MPP1 fragments; assay type: binding, Human; conditions: purified fragment with MO7e lysates, n = 3, in words
Description: For full-length expression of MPP1, the pTriX vector containing an N-terminal His tag was used to create the His-S-MPP1 fusion protein. Proteins were expressed in E. coli and purified using a nickel column (Supplementary Fig. 9). The production of cDNA constructs containing various defined segments of MPP1 has been described previously. The cDNA fragments containing either the N-terminal domain of MPP1 (amino acids 1–83), the PDZ domain (amino acids 83–160) or the C-terminal domain, containing both the SH3 and GUK domains (amino acids 161–466), were PCR amplified and subcloned into the pGex vector. All clones were fully sequenced to confirm their identity and reading frame. The GST-fusion proteins were purified using a glutathione column.

Sc1ncnc2nc[nH]c12 [6MP, 6-mercaptopurine]
effect of MPP1 on survival of cells expressing ABCC4 lacking the PDZ motif (HEK293 cells [1]; HEK293, ABCC4ΔC, in words): no additional survival benefit | increase of 6MP IC50 by ABCC4 expression (HEK293 cells [1]; HEK293 ABCC4 vs. empty vector (Ctrl)): 2.6 fold | IC50 (HEK293 cells [1]; end of the shift with increasing MPP1 (P < 0.05), 96 h): 608 µM | IC50 (HEK293 cells [1]; start of the shift with increasing MPP1, 96 h): 184 µM | IC50 (MO7e cells [2]; MO7e + Antimycin A (10 nM), Fig. 6a): 13.6 µM | IC50 (MO7e cells [2]; MO7e ABCC4 KO + Antimycin A (10 nM), Fig. 6a): 22.2 µM | IC50 (MO7e cells [2]; MO7e ABCC4 KO, Fig. 4f): 27.6 µM | IC50 (MO7e cells [2]; MO7e DKO (ABCC4 and MPP1), Fig. 4f): 10.9 µM | IC50 (MO7e cells [2]; MO7e MPP1 KO, Fig. 4f): 27.7 µM | IC50 (MO7e cells [2]; MO7e parental, Fig. 4f): 135 µM | IC50 (MO7e cells [2]; without Antimycin A, Fig. 6a): 135 µM | decrease of 6MP resistance vs. parental cells (MO7e cells [2]; MPP1 deletion alone): over fourfold | decrease of 6MP resistance vs. parental cells (MO7e cells [2]; deletion of ABCC4): over fourfold

COc1cc([C@@H]2c3cc4c(cc3[C@@H](O[C@@H]3O[C@@H]5CO[C@@H](C)O[C@H]5[C@H](O)[C@H]3O)[C@H]3COC(=O)[C@H]23)OCO4)cc(OC)c1O [Etoposide, etoposide]
IC50 (MO7e cells [3]; MO7e ABCC4 KO): 23.9 µM | IC50 (MO7e cells [3]; MO7e DKO): 21.5 µM | IC50 (MO7e cells [3]; MO7e MPP1 KO): 20 µM | IC50 (MO7e cells [3]; MO7e parental): 27.2 µM | etoposide sensitivity of knock-out strains (MO7e cells [3]; MO7e ABCC4 KO, MPP1 KO, DKO, in words): did not affect etoposide sensitivity; also recorded: equally sensitive to etoposide | effect of ABCC4 and/or MPP1 on etoposide sensitivity (HEK293 cells [4]; HEK293, in words): not affected by MPP1; also recorded: not affected by the presence of either ABCC4 and/or MPP1 | IC50 (HEK293 cells [4]; HEK293, HEK293 ABCC4 + MPP1): 1.2 µM | IC50 (HEK293 cells [4]; HEK293, HEK293 ABCC4): 1.3 µM | IC50 (HEK293 cells [4]; HEK293, HEK293 ABCC4ΔC + MPP1): 1.2 µM | IC50 (HEK293 cells [4]; HEK293, HEK293 ABCC4ΔC): 1.5 µM | IC50 (HEK293 cells [4]; HEK293, HEK293 Ctrl (empty vector)): 1.4 µM

Nc1ccn([C@@H]2O[C@H](CO)[C@@H](O)[C@@H]2O)c(=O)n1 [cytarabine, cytosine arabinoside]
cytarabine response of primary AML cells ([5]; one primary AML patient sample, in culture and in vivo (peer review file)): non-responsive | cytarabine response of primary AML cells ([5]; the other patient sample (peer review file)): sensitive

SNGQPSTLTIF-COOH (YGRKKRRQRRRSNGQPSTLTIF-OH) [ABCC4ΔC]
effect on MPP1-driven methylcellulose replating [6]: incapable of suppressing MPP1-stimulated replating | effect of peptide on 6MP IC50 (HEK293 cells [1]; HEK293 co-expressing ABCC4 and MPP1, cell penetrating peptide (20 μM in methods; various amounts), 96 h, in words): without effect; also recorded: no effect on 6MP IC50 values | ABCC4 remaining at the membrane ([7]; cell penetrating peptide (TAT fused; 10 μM in Supplementary Fig. 4), n = 20 fields of view): > 80% | effect on ABCC4 plasma membrane localization ([7]; in words, confocal microscopy): ineffective in relocalizing ABCC4 | effect of peptide on 6MP sensitivity (MO7e cells [8]): had no effect | disruption of the MPP1 and ABCC4 protein interaction [9]: incapable of disrupting the MPP1 and ABCC4 protein interaction

B1: MPP1 N terminus: MPP1 N terminus, up to the PDZ domain (amino acids 1–83) (protein, UniProt Q00013 1-83, looked up, fragment)
chain: MTLKASEGESGGSMHTALSDLYLEHLLQKRSRPEAVSHPLNTVTEDMYTNGSPAPGSPAQVKGQEVRKVRLIQFEKVTEEPMG
immunoprecipitation of ABCC4 (ABCC4 (MO7e lysates)): incapable of immunoprecipitating ABCC4

B2: SH3 and GUK domain: SH3 and GUK domain of MPP1 (amino acids 162–466) (protein, UniProt Q00013 162-466, looked up, fragment)
chain: FMRAQFDYDPKKDNLIPCKEAGLKFATGDIIQIINKDDSNWWQGRVEGSSKESAGLIPSPELQEWRVASMAQSAPSEAPSCSPFGKKKKYKDKYLAKHSSIFDQLDVVSYEEVVRLPAFKRKTLVLIGASGVGRSHIKNALLSQNPEKFVYPVPYTTRPPRKSEEDGKEYHFISTEEMTRNISANEFLEFGSYQGNMFGTKFETVHQIHKQNKIAILDIEPQTLKIVRTAELSPFIVFIAPTDQGTQTEALQQLQKDSEAIRSQYAHYFDLSLVNNGVDETLKKLQEAFDQACSSPQWVPVSWVY
immunoprecipitation of ABCC4 (ABCC4 (MO7e lysates)): incapable of immunoprecipitating ABCC4
